Measured values reported in patent US20200046746A1, “ANTI-AGING COMPOSITIONS AND METHODS FOR USING SAME” (Prescient Pharma LLC, priority 2015, published 2020).
Values joined by “and” are separate entries in the source; they are usually repeats but may differ in a detail not shown here. Equal values may be shown once.

Tests used:
[1] = system: normal human colon fibroblast cell line CCD 841 CoN (CRL-1790, ATCC); assay: Senescence beta-galactosidase staining of aged normal human fibroblasts (Example 1); assay type: cell-based; settings: lithium carbonate 0.15 μM and/or glycyrrhizic acid 0.25 mM; for effect on beta-galactosidase staining of the fibroblasts in comparison with non-treated controls or monotherapy / % green stained (average green area with and without background subtraction) / % green staining (green stained area of total original area) / visible positive beta-Galactosidase staining: 48 hours; for % green staining: per flask, 48 hours treatment, higher values = more aged cells; for % green stained (average green area with and without background subtraction) / % green staining (green stained area of total original area): per image, substance assigned through Table 3 (Area = Image #); for visible positive beta-Galactosidase staining: visual, light microscope 100× magnification
Experimental: Aging-associated beta-galactosidase is widely used as a biomarker of senescence. Here we investigated senescence-associated-beta-galactosidase activity of human colon fibroblast cells by visual assessment.
In this Example, the effect of treatment with lithium and glycyrrhizic acid separately, and as a fixed combination, was evaluated on normal human colon fibroblast cell line CCD 841 CoN (CRL-1790, ATCC).
Group 4 (flasks 10-12, control), the medium was changed to fresh compete EMEM medium without drugs as controls.
FIGS. 1-4 show pictures of the staining results for each of the groups, respectively.
Digital pictures showing the staining results for each of the 12 flasks were then independently examined and scored for percentage of area of green (positive) staining based on pixels, with and without background subtraction.
Higher values reflect more intensive green staining which corresponds to more aged cells.

[2] = system: wild-type N2 Bristol strain of C. elegans; assay: C. elegans longevity study (Example 4); assay type: in vivo; settings: for longevity and survival (longevity effect): wild type C. elegans, lithium carbonate 0.15 or 15 μM
Experimental: In this fourth Example, the effect of treatment with lithium and Glycyrrhizic acid separately, and as a fixed combination, was further evaluated on the wild-type N2 Bristol strain of C. elegans. Worm stocks were maintained on nematode growth medium (NGM) dishes containing 10 μg/mL cholesterol (Cat. No. C8667; Sigma-Aldrich, Saint Louis, Mo., USA). Dishes were seeded with OP50 Escherichia coli as a food source. Twelve polystyrene petri dishes (35 mm diameter) were prepared by filling with NGM agar containing […] cholesterol, and 25 μM 5-Fluoro-2′-deoxyuridine to suppress reproduction (FUDR; Cat. No. F0503; Sigma-Aldrich, Saint Louis, Mo., USA). The dishes were seeded with OP50 Escherichia coli as a food source. Duplicate dishes were used for each group. The treatment drug was dissolved in deionized water, and added to the dishes for the groups as explained below: […] Group #5: Glycyrrhizic acid in concentration of 0.25 mM. Group #6: untreated (control). NGM-agar treatment plates containing cholesterol (10 μg/mL) and 25 μM 5-Fluoro-2′-deoxyuridine (FUDR; Cat. No. F0503; Sigma-Aldrich, Saint Louis, Mo., USA) to suppress reproduction. […] The survival data for the various groups are also depicted in FIG. 17.

[3] = lithium carbonate 0.15 μM, in the combination plus glycyrrhizic acid 0.25 mM
[4] = lithium carbonate 15 μM, in the combination plus glycyrrhizic acid 0.25 mM

## CC1(C)[C@@H](O[C@@H]2O[C@@H](C(=O)O)[C@H](O)[C@@H](O)[C@@H]2O[C@H]2O[C@@H](C(=O)O)[C@H](O)[C@@H](O)[C@@H]2O)CC[C@]2(C)[C@@H]1CC[C@@]1(C)[C@H]2C(=O)C=C2[C@H]3C[C@@](C)(C(=O)O)CC[C@@]3(C)CC[C@@]21C [G acid, (3β,20β)-20-carboxy-11-oxo-30-norolean-12-en-3-yl 2-O-β-D-glucopyranuronosyl-α-D-glucopyranosiduronic acid]
[1]
  effect on beta-galactosidase staining of the fibroblasts in comparison with non-treated controls or monotherapy: did not appear to have significant effect
  % green staining: 9.1% and 10.03% and 6.91%
  % green stained (average green area with and without background subtraction): 6.908% and 9.104% and 10.03%
  % green staining (green stained area of total original area): 6.91% and 9.1% and 10.03%
  visible positive beta-Galactosidase staining: stained positively
[2]; glycyrrhizic acid 0.25 mM
  Age in days at % mortality 25%: 14 days
  Age in days at % mortality 50%: 16 days
  Age in days at % mortality 75%: 18 days
  Age in days at % mortality 90%: 19 days
  Age in days at % mortality 100%: 20 days
  Restricted mean Days: 16.06 days
  longevity and survival (longevity effect): not observed

## O=C([O-])[O-].[Li+].[Li+] [Li, lithium carbonate]
[1]
  effect on beta-galactosidase staining of the fibroblasts in comparison with non-treated controls or monotherapy: did not appear to have significant effect
  % green staining: 6.25% and 2.83% and 5.24%
  % green stained (average green area with and without background subtraction): 2.828% and 6.253% and 5.243%
  % green staining (green stained area of total original area): 2.83% and 6.25% and 5.24%
  visible positive beta-Galactosidase staining: stained positively
[2]; lithium carbonate 0.15 μM
  Age in days at % mortality 100%: 19 days
[2]; [3]
  Age in days at % mortality 25%: 13 days
  Age in days at % mortality 50%: 15 days
  Age in days at % mortality 75%: 16 days
  Age in days at % mortality 90%: 18 days
  Restricted mean Days: 14.88 days
[2]; lithium carbonate 15 μM
  Age in days at % mortality 100%: 19 days
[2]; [4]
  Age in days at % mortality 25%: 14 days
  Age in days at % mortality 50%: 15 days
  Age in days at % mortality 75%: 16 days
  Age in days at % mortality 90%: 18 days
  Restricted mean Days: 14.56 days
[2]; glycyrrhizic acid 0.25 mM
  longevity and survival (longevity effect): not observed
